One data set has as its system GLP-1 secretion. As to the kind of experiment: GLP-1 secretion assay (Table 5; cell line not stated). The data set is classed as cell-based. As for the experimental part:
The GLP-1 secretion assay identifies compounds that stimulate secretion of glucagonlikepeptide one (GLP-1) in mouse and human cell lines derived from gastrointestinal tract tissue. GLP-1 secretion is measured using an ELISA designed to detect the appropriate forms of GLP-1 secreted from these cells. If active in the cell-based GLP-1 assay, molecules can be further tested for selectivity in assays that measure activation of G-protein-coupled receptors (GPCRs) known to stimulate GLP-1 secretion. See, for example, “Glucagon-Like Peptide 1-Based Therapies for Type 2 Diabetes: A Focus on Exenatide,” Kathleen Dungan and John B. Buse; Clinical Diabetes 29 (1), (Winter 2011); and “Glucagon-Like Peptide 1 Secretion by the L-Cell,” Gareth E. Kim and Patricia L. Brubaker; Diabetes: 55 (supplement 2), (December, 2006).
The GLP-1 secretion, diabetes phenotypic testing identifies compounds that stimulate secretion of glucagon-like peptide one (GLP-1) in mouse and human cell lines derived from gastrointestinal tract tissue. GLP-1 secretion is measured using an Eli Lilly & Company (Indianapolis, Ind., USA) proprietary ELISA assay that was specifically designed to detect the appropriate forms of GLP-1 secreted from these cells. (Eli Lilly operates a program known Open Innovation Drug Discovery that performs such testing. See https://openinnovation.lilly.com/dd/.) If active in the cell-based GLP-1 assay, molecules are further tested for selectivity in assays that measure activation of GPCRs known to stimulate GLP-1 secretion. See Glucagon-Like Peptide 1-Based Therapies for Type 2 Diabetes: A Focus on Exenatide; Kathleen Dungan and John B. Buse; Clinical Diabetes: 29 (1), (Winter 2011); and Glucagon-Like Peptide 1 Secretion by the L-Cell; Gareth E. Kim and Patricia L. Brubaker; Diabetes: 55 (supplement 2), (December, 2006).

Data set [1] deals with secreted PCSK9 in HepG2 cells. Nature of the data set: PCSK9 inhibition assay (AlphaLISA, secreted PCSK9). The settings on record: Homo sapiens, Table 5. The data set is classed as cell-based. From the text:
PCSK9 expression is actively regulated at transcription levels. Statins are known to stimulate PCSK9 transcription which in turn curbs the efficacy of statins in LDL lowering in humans. […] The PCSK9 SI phenotypic assay is designed to identify compounds that inhibit synthesis of PCSK9 in human hepatoma cell lines (HepG2). See, for example, Horton, J. D., Cohen, J. C., and Hobbs, H. H., “PCSK9: a convertase that coordinates LDL catabolism,” J. Lipid Res. 50 Suppl, S172-177, (2009); Crunkhorn, S. “Trial watch: PCSK9 antibody reduces LDL cholesterol,” Nat Rev Drug Discov 11, 11, (2012); Vogel, R. A., “PCSK9 inhibition: the next statin,” J Am Coll Cardiol 59, 2354-2355, (2012); Li, H., Dong, B., Park, S. W., Lee, H. S., Chen, W., and Liu, J., “Hepatocyte nuclear factor 1alpha plays a critical role in PCSK9 gene transcription and regulation by the natural hypocholesterolemic compound berberine,” J Biol Chem 284, 28885-28895, (2009); and Cao, A., Wu, M., Li, H., and Liu, J., “Janus Kinase activation by cytokine oncostatin M decreases PCSK9 expression in liver cells,” J Lipid Res 52, 518-530, (2011).
Inhibition of secreted PCSK9 was measured in human hepatocellular carcinoma (HepG2) cells using an “AlphaLISA”®-brand assay. Given that this assay is run in an inhibition mode, the viability of cells was also assessed to rule out compounds whose PCSK9 inhibition resulted from deleterious effects on cell health. Freshly cultured HepG2 cells were harvested from poly-d-lysine-coated T225 cell culture flasks and plated in biocoat poly-d-lysine coated 384 black with clear bottom microtiter plates (BD BioCoat #356663; Becton, Dickinson and Company, Franklin Lakes, N.J., USA) at 20,000 cells/well in 60 ul of growth media (MEM+10% heat inactivated FBS+1% NEAA+1% sodium pyruvate+1% GlutaMAX). Cell plates were incubated overnight at 37° C. and 5% CO2 prior to compound treatment.
Compounds were serially diluted 3-fold in 100% DMSO to achieve a starting final assay plate concentration of 50 uM following a 20-fold dilution in assay media (MEM+5% heat inactivated FBS+1% NEAA+1% sodium pyruvate+1% GlutaMAX) and a 10-fold dilution into the cell plates. While the compounds were diluting, the cell plates were washed twice with 75 ul of assay media and refilled with 45 ul of assay media. The cell plates were incubated for 48 hrs at 37° C. and 5% CO2 prior to running the “AlphaLISA”®-brand assay. The “AlphaLISA”® bead mix was assembled in water and left to incubate 1 hr in the dark prior to use (1× “AlphaLISA”® buffer, 5 mg/ml mAb-PCSK9-A4 conjugated acceptor beads, 3.4 uM bioti-mAb-anti-PCSK9-B9, 5 mg/ml streptavidin-coated donor beads). […] In the dark, 5 ul of the bead mix was added to the ProxiPlates, and then the plates were left to incubate at ambient temperature in the dark overnight before being read on an Envision (excitation 680 nm and emission 615 nm). […] The plates were removed from the incubator, sealed with black tape, and read for propidium iodide stained nuclei using an Acumen-brand cell imaging system (TTP Labtech Ltd., Melbourn, Hertfordshire United Kingdom). Percent inhibitions at all concentrations tested were calculated relative to 0.5% DMSO (min effect), and the effect of 50 uM of a fully efficacious PCSK9 inhibitor for the PCSK9 inhibition assay (max effect), or 50 uM Brefeldin A for the viability assay (max effect). IC50 values were calculated using a 4 parameter logistic curve fitting equation.
In general terms: Alpha assays give light when donor and acceptor beads are brought close together.

Another data set has as its target AhR (Homo sapiens (Human), UniProt P35869). Nature of the data set: ethoxyresorufin-O-deethylase (EROD) assay, AhR activation (CYP1A1 induction). The data set is classed as cell-based. The settings on record: for increase of signal over DMSO treatment: at 10 nM concentration, data not shown. As for the experimental part: The human Hep G2 cell line from the Small Molecule Screening and Synthesis Facility (UWCCC, Madison, Wis.) and was maintained in DMEM medium supplemented with 10% FBS. Cells were incubated at 37° C. in a humidified atmosphere supplemented with 5% CO2.
Preparation of cells: Cells were cleaved from T75 flasks with 0.05% trypsin. The cells were then collected by spinning at 1 g for 4 min. Excess media containing trypsin was removed from the pellet, which was then re-suspended in growth media. The cells were then counted using a hemocytometer. Cells were plated in sterile 96-well clear bottom black culture plates at a density of 20,000 cells per well in 0.1 mL of media. The cells were then incubated for 24 h at 37° C. in a humidified atmosphere supplemented with 5% CO2.
The ethoxyresorufin-O-deethylase (EROD) assay was performed on cell cultures of human Hep G2 cells. Briefly, 24 h after plating, cells in 96-well plates were treated with AhR agonists and allowed to incubate for 24 h. Each well was then rinsed with 200 uL of PBS buffer twice. To each well was then added 100 uL of 150 nM solution of 7-ethoxyresurufin and allowed to incubate for 2 h. Fluorescence measurements were obtained with a Safire II micro plate reader with excitation at 520 nm with a 25 nm bandwidth and emission at 595 nm with a 20 nm bandwidth.
The bioactivity of malassezin analogs was then investigated. The well-documented ethoxyresorufin-O-deethylase (EROD) assay was used to determine the EC50 values of the compounds towards AhR activation in HepG2 cells. Donato, M. T.; Gomezlechon, M. J.; Castell, J. V. Anal. Biochem. 1993, 213, 29; van Tonder, J. J., University of Pretoria Z. A., Thesis, 2011. This assay measures the induction of cytochrome P450-1A1 (CYP1A1), which is a major outcome of AhR activation. Whyte, J. J.; Jung, R. E.; Schmitt, C. J.; Tillitt, D. E. Crit. Rev. Toxicol. 2000, 30, 347. CYP1A1 selectively converts 7-ethoxyresorufin to the fluorescent product resorufin.

For data set [2] the following is noted: in human; cited from earlier work.
For data set [3], the system named is IL-17 secretion from human peripheral blood mononuclear cells (PBMCs). Nature of the data set: IL-17 phenotypic assay. It counts as cell-based. Particulars: PBMC, Table 5, read-out: IL17, IC50. An excerpt: The IL-17 phenotypic assay seeks to identify inhibitors of IL-17 secretion from human peripheral blood mononuclear cells (PBMCs) following stimulation of memory T cells by IL-23, anti-CD3, and anti-CD28. Compounds of interest will inhibit IL-17. See W. Ouyang, J. K. Kolls, V. Zheng, “The biological functions of T helper 17 cell effector cytokines in inflammation,” Immunity, 28, 454-467 (2008); I. I. Ivanov, L. Zhou, D. R. Littman, “Transcriptional regulation of Th17 cell differentiation,” Semin Immunol, 19, 409-417 (2007); N. Mane I, D. Unutmaz, D. R. Littman, “The differentiation of human T(H)-17 cells requires transforming growth factor-beta and induction of the nuclear receptor RORgammat,” Nat Immunol, 9, 641-649 (2008); and M. Ciofani, A. Madar, C. Galan, M. Sellars, K. Mace, F. Pauli, A. Agarwal, W. Huang, C. N. Parkurst, M. Muratet, K. M. Newberry, S. Meadows, A. Greenfield, V. Vang, P. Jain, F. K. Kirigin, C. Birchmeier, E. F. Wagner, K. M. Murphy, R. M. Myers, R. Bonneau, D. R. Littman, “A validated regulatory network for Th17 cell specification.” Cell, 151, 289-303 (2012).

Another data set deals with IL5. Nature of the data set: IL5 assay (Table 5). The data set is classed as cell-based.
The mark [4] stands for this setting: EROD assay, HepG2 cells, 24 h treatment, read-out: EC50 (AhR Activity of Diindolylmethanes).

Like-named read-outs stand apart in the source and are kept apart here.

Sequence of AhR (P35869 11-848): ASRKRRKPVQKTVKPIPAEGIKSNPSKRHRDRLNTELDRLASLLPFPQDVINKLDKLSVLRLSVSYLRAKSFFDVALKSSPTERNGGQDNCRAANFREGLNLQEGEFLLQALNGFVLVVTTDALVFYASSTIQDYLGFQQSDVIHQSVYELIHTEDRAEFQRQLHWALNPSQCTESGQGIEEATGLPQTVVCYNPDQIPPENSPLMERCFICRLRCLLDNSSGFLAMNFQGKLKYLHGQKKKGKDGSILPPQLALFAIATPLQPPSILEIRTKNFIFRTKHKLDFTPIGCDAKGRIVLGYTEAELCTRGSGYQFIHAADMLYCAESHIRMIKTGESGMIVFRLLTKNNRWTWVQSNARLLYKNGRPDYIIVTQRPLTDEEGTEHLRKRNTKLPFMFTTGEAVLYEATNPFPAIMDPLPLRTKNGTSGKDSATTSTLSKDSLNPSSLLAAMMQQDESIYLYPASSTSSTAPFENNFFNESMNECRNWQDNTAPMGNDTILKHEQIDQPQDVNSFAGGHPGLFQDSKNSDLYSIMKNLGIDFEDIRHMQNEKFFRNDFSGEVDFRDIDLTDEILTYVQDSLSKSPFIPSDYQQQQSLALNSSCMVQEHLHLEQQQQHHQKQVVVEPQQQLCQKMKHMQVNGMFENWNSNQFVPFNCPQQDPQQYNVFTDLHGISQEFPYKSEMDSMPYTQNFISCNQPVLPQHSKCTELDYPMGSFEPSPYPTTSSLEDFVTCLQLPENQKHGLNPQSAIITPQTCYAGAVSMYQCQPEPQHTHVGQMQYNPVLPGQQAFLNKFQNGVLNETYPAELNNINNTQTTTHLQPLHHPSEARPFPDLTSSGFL

What is called EC50 is the concentration at which the effect is half-maximal. As a reminder, the IC50 is the point on the concentration scale where inhibition reaches its midpoint. Take `COc1ccc(Cc2c(C)c3ccccc3n2S(=O)(=O)c2ccc(C)cc2)c(OC)c1`: a half-maximal effect in the data set on GLP-1 secretion (EC50) was put at 2900 nM. For the same compound, the half-inhibitory concentration (IC50) in data set [1] amounted to 1100 nM.

On to `O=Cc1c(Cc2c[nH]c3ccc(Cl)cc23)[nH]c2ccccc12` [Compound 11a], for which the 50% effective concentration (EC50) on AhR (setting [4]) was 93 ± 150 nM. At AhR, the “increase of signal over DMSO treatment” value was 5 fold.

Turning to `COc1ccc2[nH]cc(Cc3cc4ccccc4[nH]3)c2c1` [Compound 10c], the EC50 at AhR (setting [4]) worked out at 94 ± 270 nM.

Consider `Cn1cc(Cc2cc3ccccc3[nH]2)c2ccccc21` [Compound 2351377824], for which the EC50 on AhR (Table 5, read-out: AhR, EC50) amounted to 90 nM. For the same compound, in data set [1], the IC50 worked out at 17900 nM.

On to `Clc1cc2c(cc1Cl)Oc1cc(Cl)c(Cl)cc1O2` [dioxin, 2,3,7,8-tetrachlorodibenzo-p-dioxin], for which the “half-life (metabolic stability)” value in data set [2] is recorded as 7-10 years.

Turning to `Cn1cc(Cc2[nH]c3ccccc3c2C=O)c2ccccc21` [Compound 11d], the “EC50 value relative to that of malassezin” value on AhR (EROD assay, HepG2 cells) is “about five”. On AhR (setting [4]), the EC50 amounted to 55 ± 30 nM. At AhR, the “increase of signal over DMSO treatment” value is on record as 6 fold.

Regarding `c1ccc2[nH]c(Cc3c[nH]c4ccccc34)cc2c1` [6′, 3-((1H-indol-2-yl)methyl)-1H-indole], at AhR (setting [4]), the concentration giving a half-maximal response (EC50) stood at 215 ± 460 nM.

Regarding `Clc1cccc2c(Cc3cc4ccccc4[nH]3)c[nH]c12` [Compound 2351377820], in the data set with GLP-1 secretion, the EC50 was 7200 nM. Further, it took 2800 nM to reach half-maximal inhibition in data set [1] (IC50).

In the case of `Cn1cc(Cc2cc3ccccc3[nH]2)c2ccccc21` [Compound 10d], the EC50 at AhR (setting [4]) was determined as 86 ± 40 nM.

The compound `Cc1ccc(S(=O)(=O)n2c(COC(C)C)c(C)c3ccccc32)cc1` gave an EC50 in the data set on GLP-1 secretion of 7300 nM.

Take `O=Cc1c(Cc2c[nH]c3c(Cl)cccc23)[nH]c2ccccc12` [Compound 11b]: the EC50 at AhR (setting [4]) stood at 320 ± 100 nM.

`COc1ccc2[nH]cc(Cc3[nH]c4ccccc4c3C=O)c2c1` [Compound 11c]: at AhR (setting [4]), the concentration for a half-maximal effect (EC50) was determined as 230 ± 100 nM.

In the data set on GLP-1 secretion, `Cc1ccc(S(=O)(=O)n2c(Cc3c[nH]c4cccc(C)c34)c(C)c3ccccc32)cc1` returned an EC50 of 2600 nM.

In the data set on GLP-1 secretion, `Clc1ccc2[nH]cc(Cc3cc4ccccc4[nH]3)c2c1` [Compound 2351377819] yielded a half-maximal effective concentration (EC50) of 14800 nM. In data set [1], this compound gave an IC50 of 10000 nM.

Consider `Cc1ccc(S(=O)(=O)n2c(Cc3cn(C)c4ccccc34)c(C(C)C)c3ccccc32)cc1`, for which half-maximal inhibition in data set [1] (IC50) was put at 1100 nM.

With `Cc1ccc(S(=O)(=O)n2c(Cc3[nH]c4ccccc4c3CC#N)c(C)c3ccccc32)cc1`, the IC50 in data set [3] was 3100 nM; in the data set with IL5, > 30000 nM.

Take `O=Cc1c(Cc2c[nH]c3ccccc23)[nH]c2ccccc12` [Compound 6, 2-((1H-indol-3-yl)methyl)-1H-indole-3-carbaldehyde, reference compound]: the EC50 at AhR (setting [4]) was 270 ± 100 nM.

`Brc1ccc2[nH]cc(Cc3cc4ccccc4[nH]3)c2c1` [Compound 2351377823] displayed a half-maximal effective concentration (EC50) in the data set on GLP-1 secretion of 6800 nM.

The values above are taken from US9969686B2, “Synthesis of diindolylmethanes and indolo[3,2-b]carbazoles, compounds formed thereby, and pharmaceutical compositions containing them” (Wisconsin Alumni Research Foundation, priority 2014, dated 2018).
